Measured values from article PMC11012721 (International Journal of Molecular Sciences, 2024).

Assays:
mice [1] = test: passive avoidance test, LPS-induced long-term memory impairment; assay type: in vivo; conditions: LPS 2.5 mg/kg ip
Description: (§1) The passive avoidance test in mice is used to assess fear-related learning and memory. The apparatus consists of an acrylic box with two chambers: white (10 × 13 × 15 cm) and black (25 × 20 × 15 cm). During the experiment, the white chamber is illuminated with a bright light (8 W). The black chamber, which is equipped with an electric grid base, is connected to the illuminated chamber.
(§2) A pre-test (training) was carried out before the experiments. Each mouse was placed individually in the illuminated chamber of the device and allowed to explore it within 30 s. The guillotine door separating the two chambers was then opened. The mouse was then allowed to enter the black chamber, where it was immediately treated with an electric shock (0.2 mA) for 2 s. The latency to enter the black chamber was recorded (TL1). During the retention trial, which was performed 24 h after the pre-test, the same mouse was again placed in the lighted chamber of the device. The time required to enter the black chamber was recorded (TL2). In contrast to the pre-test, no foot shock was administered this time. […] The index of latency (IL) was calculated as follows:IL = (TL2 − TL1)/TL1(1)
(§3) After the 30 min delay, the pre-test was performed.

[2] = tested on: phosphatidylcholine PC(22:4(7Z, 10Z, 13Z, 16Z)/16:0) level; test: phosphatidylcholine level in brain samples, pathway analysis (Mass Profiler Professional, KEGG); assay type: in vivo, mice; conditions: for effect on phosphatidylcholine level in brains: LPS model
Description: (§4) The liquid chromatograph consisted of a degasser, a binary pump, a column oven, an autosampler and the high-resolution mass detector QTOF-MS/MS with an electrospray ionization source. The chromatographic column Zorbax Eclipse Plus (Agilent Technologies, CA, USA) (150 mm × 2.1 mm, 3.2 um, RP-18) was used to separate the metabolites of the injected matrix in the following gradient of acetonitrile with 0.1% formic acid (solvent B) in the 0.1% aqueous solution of formic acid (solvent A): 0 min—2% B, 2 min—10% B, 6 min—40% B, 35–37 min—95% B and 37.5 min—2% B. The analysis time was set to 43 min, the follow-up time to 5 min, the flow rate to 0.2 mL/min and the injection volume to 10 μL. The detailed settings of the mass spectrometer were as follows: a capillary voltage of 3000 V, a skimmer voltage of 65 V, a mass range of 100–1200 m/z, a collision energy of 10 and 20 V, a nebulizer pressure of 30 psig, a gas flow rate of 12 L/min and gas and sheath gas temperatures of 250 and 325 °C. The Mass Hunter Workstation (version B.10.00) from Agilent Technologies was used to record and process the data obtained. […] For each of the concentrations, the average values of the content of the tested substance in the respective organ were calculated. The standard deviation (SD) values were calculated in each case. The recorded mass chromatograms for the brain samples (injection with saline: n = 2, injection with LPS: n = 3 and 25 mg/kg b.w. with LPS injection: n = 3) were analyzed with the Mass Profiler Professional Program 15.1 from Agilent Technologies (Santa Clara, CA, USA) with a built-in pathways analysis module that uses the Kyoto Encyclopedia of Genes and Genomes (KEGG) database to detect the effects of the injected substance on molecular mechanisms. First, the raw data from the recorded chromatograms were exported in csv format and analyzed in the program. […] Of the 517 entities analyzed, eleven differentiating m/z signals were detected in the samples, with p < 0.05 and a fold change of 2 settings. One of the differentiating signals was phosphatydylcholine, whose behavior in the tested samples was analyzed with the pathways module.

mice [3] = test: passive avoidance test, SCOP-induced long-term memory impairment; assay type: in vivo
Description: as §1, §2, §3

[4] = HPLC-ESI-QTOF-MS/MS determination of astragaloside IV in organs post mortem; assay type: in vivo, mice; conditions: for content in kidney (Av) / content in liver (Av) / content in spleen (Av) / content in brain (Av): 1 h after injection, n = 3
Description: They were then homogenized in an Eppendorff plastic vial kept in ice. The homogenates of the organs were vortexed with 200 µL of 50% ethanol for 10 min. The Eppendorff vials were centrifuged at 3500 rpm for 5 min and the supernatant was filtered through a nylon syringe filter with a diameter of 0.22 µm into the autosampler vials with the glass inserts. […] Due to the small size and mass of brains, AIV was quantified in these organs after addition of the reference compound (Sigma Aldrich, St. Louis, MO, USA) to the samples. […] The peak areas of astragaloside IV in the brains were compared with the blank solution of the standard compound. The levels of astragaloside IV in the other organs were measured without the presence of the reference compound.
as §4

AChE = conditions: previous studies; cited from earlier work
[5] = set-up: method as in Zhang et al. [60]; conditions: ref Zhang et al. [60]; cited from earlier work
mice [6] = test: locomotor activity test (photoresistance actimeters); conditions: 6, 12.5 or 25 mg/kg ip; 30 min measurement; p > 0.05
[7] = AIV smaller doses (6, 12.5 mg/kg ip), p > 0.05
[8] = AIV 6, 12.5 or 25 mg/kg ip, p > 0.05 vs LPS

For lipopolysaccharide [LPS], the “effect on memory acquisition and consolidation vs control mice” value (mice [1]; p < 0.001) was “impaired both memory acquisition and consolidation”, the “effect on phosphatidylcholine level in brains” value [2] was “decrease the level of phosphatidylcholines” and the “Kennedy Pathway log2 (phosphatidylcholine level)” value ([2]; brain samples, LPS group) was 0. For the same compound, the “One-Carbon Metabolism log2 (phosphatidylcholine level)” value ([2]; brain samples, LPS group) was 0.

For `CC(C)(O)[C@@H]1CC[C@](C)([C@H]2[C@@H](O)C[C@@]3(C)[C@@H]4C[C@H](O[C@@H]5O[C@H](CO)[C@@H](O)[C@H](O)[C@H]5O)[C@H]5C(C)(C)[C@@H](O[C@@H]6OC[C@@H](O)[C@H](O)[C@H]6O)CC[C@@]56C[C@@]46CC[C@]23C)O1` [AIV, astragaloside IV], the “attenuation of SCOP-impaired acquisition of long-term memory” value (mice [3]; AIV 25 mg/kg ip before SCOP 1 mg/kg ip, p < 0.001 vs SCOP) was “attenuated”, the “attenuation of SCOP-impaired consolidation of long-term memory” value (mice [3]; AIV 25 mg/kg ip, SCOP 1 mg/kg ip, p < 0.01 vs SCOP) was “attenuated” and the “attenuation of SCOP-impaired acquisition of long-term memory” value (mice [3]; [7]) was “ineffective”. For the same compound, the “attenuation of SCOP-impaired consolidation of long-term memory” value (mice [3]; [7]) was “ineffective”, the “effect of AIV itself on acquisition of long-term memory” value (mice [3]; all doses tested (6, 12.5, 25 mg/kg ip), no SCOP, p < 0.001 vs control) was “improved acquisition” and the “attenuation of LPS-impaired acquisition of long-term memory” value (mice [1]; [8]) was “did not attenuate”. The “attenuation of LPS-impaired consolidation of long-term memory” value (mice [1]; [8]) was “did not attenuate”, the “content in kidney (Av)” value ([4]; 6 mg/kg ip) was 0.0174 mg/Organ and the “content in liver (Av)” value ([4]; 6 mg/kg ip) was 0.00411 mg/Organ. The “content in spleen (Av)” value ([4]; 6 mg/kg ip) was 0.03766 mg/Organ, the “content in brain (Av)” value ([4]; 12.5 mg/kg ip) was 0.00012 mg/Organ and the “content in kidney (Av)” value ([4]; 12.5 mg/kg ip) was 0.03882 mg/Organ. For the same compound, the “content in liver (Av)” value ([4]; 12.5 mg/kg ip) was 0.01084 mg/Organ, the “content in spleen (Av)” value ([4]; 12.5 mg/kg ip) was 0.04919 mg/Organ and the “content in brain (Av)” value ([4]; 25 mg/kg ip) was 0.00023 mg/Organ. For the same compound, the “content in kidney (Av)” value ([4]; 25 mg/kg ip) was 0.08892 mg/Organ, the “content in liver (Av)” value ([4]; 25 mg/kg ip) was 0.02316 mg/Organ and the “content in spleen (Av)” value ([4]; 25 mg/kg ip) was 0.06844 mg/Organ. The “dose dependence of concentration in soft organ tissues” value ([4]; 6, 12.5, 25 mg/kg ip) was “dose-dependent”, the “rank order of content in soft organs” value ([4]; ip, mice, post mortem) was “highest content of the saponin was found in the kidneys, then in the spleen, liver and brain” and the “effect on phosphatidylcholine level in brains” value ([2]; astragaloside IV 25 mg/kg b.w. ip) was “restored the level of the compound to that of saline administration”. For the same compound, the “AChE inhibition” value (AChE) was “inhibitor of AChE”, the “route of excretion” value [5] was “excreted slowly via hepatic clearance” and the “effect on locomotor activity” value (mice [6]) was “no effect”.

In the case of `CN1[C@@H]2C[C@@H](OC(=O)[C@H](CO)c3ccccc3)C[C@H]1[C@@H]1O[C@@H]12` [SCOP, Scopolamine, reference compound], the “effect on memory acquisition and consolidation vs control mice” value (mice [3]; SCOP 1 mg/kg ip, p < 0.001) is reported as “impaired both memory acquisition and consolidation”.
